Test results published in patent US20220324911A1, “THERAPEUTIC PEPTIDES” (COHBAR, INC., priority 2019, published 2022).
Non-standard residues stand in square brackets, D forms with d. No end group written: not given here.

What was measured:
[1] = tested on: 3T3-L1 adipocytes; experiment: Free Fatty Acid Levels in 3T3-L1 Adipocytes; assay type: cell-based, mouse; settings: for Free Fatty Acid Levels Expressed as a Percent Isoproterenol Control, Percent of Control Value: peptides at 25 μM, 20-22 hours then isoproterenol (1 nM) 3 hours
Method: Following 12-15 days' differentiation, test peptides were added to a final concentration of 25 μM and incubated for 20-22 hours in Adipocyte Maintenance Medium. After 20-22 hours, isoproterenol (1 nM) was added to all wells except untreated controls and test peptides were replenished. Cells were incubated for a further 3 hours in Assay Buffer (Zen-Bio). Free fatty acid concentrations in the media were determined using a Free Fatty Acid Assay Kit (Zen-Bio) according to the manufacturer's instructions using a plate reader (540 nm). Absorbance values were corrected for untreated background and expressed relative to isoproterenol treated cells. Treatment with isoproterenol (1 nM) alone was used as the free fatty acid level stimulatory control. The relative standard deviation of the isoproterenol control was <10%. […] Free fatty acid levels for insulin (100 nM) treatment were <5% of the isoproterenol control value.

[2] = tested on: MDA-MB-231 cells; experiment: Caspase 3/7 Activity in MDA-MB-231 Cells (Caspase-Glo 3/7); assay type: cell-based, human; settings: peptides at 10 μM, 18 hours, relative to DMSO control
Method: The effect of the peptides on cell death/survival can be assessed using a caspase-3 assay. Peptides were dissolved with DMSO at 10 mM stock. […] Staurosporine (Selleckchem) was dissolved with DMSO at 1 mM stock. Caspase-Glo 3/7 Assay Reagent was purchased from Promega (Madison, Wis.). MDA-MB-231 human breast cancer cell line was purchased from American Type Culture Collection (Manassas, Va.). MDA-MB-231 cells were grown in DMEM Medium supplemented with 10% FBS. 100 μg/ml penicillin and 100 μg/ml streptomycin were added to the culture medium. Cultures were maintained at 37° C. in a humidified atmosphere of 5% C02 and 95% air. MDA-MB-231 cells were incubated with test peptides in duplicate at 10 μM at 37° C. in a humidified atmosphere of 5% C02 and 95% air for 18 hours. 25 μl of Caspase-Glo 3/7 Assay Reagent was added to each well and incubated at 37° C., 5% C02 for 1 hour. Luminescence for each sample well on the plate was measured by Envision 2104 Multilabel Reader (PerkinElmer, Santa Clara, Calif.). Activity was calculated relative to DMSO control.

[3] = tested on: MCF-7 cells; settings: human, 72 h, 10 µM
Method: Peptides and reference compound staurosporine (Selleckchem) were dissolved with DMSO at 10 mM stock. CellTiter 96® AQueous One Solution Reagent (MTS assay reagent) was purchased from Promega (Madison, Wis.). MCF-7 human breast cancer cell line was purchased from American Type Culture Collection (Manassas, Va.). MCF-7 cells were grown in EMEM Medium supplemented with 10% FBS and 0.01 mg/ml human recombinant insulin. 100 μg/ml penicillin and 100 μg/ml streptomycin were added to the culture medium. Cells were incubated with test peptides at 10 μM at 37° C. in a humidified atmosphere of 5% C02 and 95% air for 72 hours. 5 μl of CellTiter 96® AQueous One Solution Reagent (MTS assay reagent) was added to each well and incubated at 37° C., 5% C02 for 5 hours. Absorbance at 492 nm was recorded by Envision 2104 Multilabel Reader. Treatment with DMSO alone was used as the cell viability activity control.

[4] = tested on: MDA-MB-231 cells; experiment: MTS Assay in MDA-MB-231 Cells (cell viability); assay type: cell-based; settings: human, 72 h
Method: Test compounds and reference compound staurosporine (Selleckchem) were all dissolved with DMSO at 10 mM stock. […] Activity was calculated relative to DMSO control. […] Cell viability was 3% of the DMSO control value for Staurosporine (10 uM).

Question: “20 (QTVPNKPT[dA]PKLPN[dA]) [compound 20]” was tested. Which “Free Fatty Acid Levels Expressed as a Percent Isoproterenol Control, Percent of Control Value” [1] did it give?
Answer: The value was 108%.

Question: How did the “Free Fatty Acid Levels Expressed as a Percent Isoproterenol Control, Percent of Control Value” [1] turn out when 5 ([dA]LIQCQSGHLR) [compound 5] was run?
Answer: Its value is 159%.

Question: For 8 (TCWLIVDIGLLIVSSVF) [compound 8], which “Free Fatty Acid Levels Expressed as a Percent Isoproterenol Control, Percent of Control Value” [1] is on record?
Answer: The value was 129%.

Question: For 19 (QTVPNKPT[dA]PKLPNLH) [compound 19], which “Free Fatty Acid Levels Expressed as a Percent Isoproterenol Control, Percent of Control Value” [1] is on record?
Answer: Its value is 89%.

Question: 18 (QTVPNKPTGPKLPNLH) [compound 18] was tested. Which “Free Fatty Acid Levels Expressed as a Percent Isoproterenol Control, Percent of Control Value” [1] did it give?
Answer: Its value is 109%.

Question: How did the “Free fatty acid levels, % of the isoproterenol control value” ([1]; insulin 100 nM) turn out when insulin [reference compound] was run?
Answer: The value was less than 5%.

Question: With 13 (TGWARGLISTGRV) [compound 13] as the substance, how does the “Free Fatty Acid Levels Expressed as a Percent Isoproterenol Control, Percent of Control Value” [1] read?
Answer: Its value is 87%.

Question: For MTCWLIVDIGLLIVSSVF [compound 7], which “Caspase 3/7 Activity, Percent of Control Activity” value (“Caspase 3/7 Activity, Percent” for short) [2] is on record?
Answer: The value was 56%.

Question: What about the “MTS Assay cell viability, Percent of Control Activity” value (“MTS Assay cell viability, Percent” for short) [3] of the same substance?
Answer: Its value is 52%.

Question: And the “Free Fatty Acid Levels Expressed as a Percent Isoproterenol Control, Percent of Control Value” [1]?
Answer: Its value is 160%.

Question: What about the “MTS Assay cell viability, Percent” value [4] of the same substance?
Answer: The value was 88%.

Question: 3 (SLLIQCQSGHLR) [compound 3] was tested. Which “Free Fatty Acid Levels Expressed as a Percent Isoproterenol Control, Percent of Control Value” [1] did it give?
Answer: The value was 136%.

Question: For 9 ([dA]TCWLIVDIGLLIVSSVF) [compound 9], which “Free Fatty Acid Levels Expressed as a Percent Isoproterenol Control, Percent of Control Value” [1] is on record?
Answer: The value was 125%.

Question: With MSLLIQCQSGHLR [compound 2] as the substance, how does the “Caspase 3/7 Activity, Percent” value [2] read?
Answer: The value was 92%.

Question: What about the “MTS Assay cell viability, Percent” value [3] of the same substance?
Answer: The value was 59%.

Question: And the “Free Fatty Acid Levels Expressed as a Percent Isoproterenol Control, Percent of Control Value” [1]?
Answer: Its value is 162%.

Question: And the “MTS Assay cell viability, Percent” value [4]?
Answer: Its value is 90%.

Question: With 4 (LLIQCQSGHLR) [compound 4] as the substance, how does the “Free Fatty Acid Levels Expressed as a Percent Isoproterenol Control, Percent of Control Value” [1] read?
Answer: Its value is 141%.

Question: For MTGWARGLISTGRV [compound 12], which “Caspase 3/7 Activity, Percent” value [2] is on record?
Answer: The value was 73%.

Question: And the “MTS Assay cell viability, Percent” value [3]?
Answer: The value was 62%.

Question: And the “Free Fatty Acid Levels Expressed as a Percent Isoproterenol Control, Percent of Control Value” [1]?
Answer: Its value is 107%.

Question: And the “MTS Assay cell viability, Percent” value [4]?
Answer: The value was 89%.

Question: MQTVPNKPTGPKLPNLH [compound 17] was tested. Which “Caspase 3/7 Activity, Percent” value [2] did it give?
Answer: Its value is 65%.

Question: What about the “MTS Assay cell viability, Percent” value [3] of the same substance?
Answer: The value was 68%.

Question: And the “Free Fatty Acid Levels Expressed as a Percent Isoproterenol Control, Percent of Control Value” [1]?
Answer: Its value is 112%.

Question: And the “MTS Assay cell viability, Percent” value [4]?
Answer: The value was 85%.

Question: Which “Free Fatty Acid Levels Expressed as a Percent Isoproterenol Control, Percent of Control Value” [1] does the source give for “10 ([dA]TCWLIVDIGLLIVSS[dA]F) [compound 10]” here?
Answer: Its value is 138%.

Question: For 15 (TGW[dA]RGLISTGR) [compound 15], which “Free Fatty Acid Levels Expressed as a Percent Isoproterenol Control, Percent of Control Value” [1] is on record?
Answer: Its value is 102%.

Question: Which “Free Fatty Acid Levels Expressed as a Percent Isoproterenol Control, Percent of Control Value” [1] does the source give for “14 (TGWARGLISTGR; not fully specified) [compound 14]” here?
Answer: Its value is 102%.
